Data published in patent US8193224B2, “Medicinal composition for prevention or treatment of parasitic protozoan infection” (Fujifilm Corporation, priority 2004, dated 2012).
Read-outs that look alike come from different tables or passages of the source.

What was measured:
Type in all cases: cell-based
[1] = tested on: Leishmania donovani (MHOM/ET/67/L82 strain); assay: Leishmania protozoa growth inhibition screening test; settings: MHOM/ET/67/L82 strain amastigote, pH 5.4, 72 hours, Alamar Blue, read-out: 50% growth inhibition concentration Leishmania donovani
Method: In the present example, Leishmania donovani (MHOM/ET/67/L82 strain) was used. Protozoa was subcultured in Syrian Golden hamster, from which an amastigote was obtained. In the experiment, SM medium supplemented with 10% heat-treated bovine fetal serum was used, which was adjusted to pH 5.4, and cultured in an atmosphere of 5% CO2 concentration, at 37° C.
The compounds of the present invention to be used in the present test and the positive target drug (miltefosine) were dissolved in DMSO to make a test solution of a predetermined concentration. After adding a medium containing a predetermined number of protozoa to wells of a 96-well culture plate and pre-treating, concentration of the amastigote was measured with CASY cell analysis system (Scharfe, Germany). Then, test solution containing a drug of a predetermined concentration or a drug-free DMSO was added. Test solutions were taken by duplicates. After culturing the culture plate for 72 hours in an incubator, growth inhibition activity was tested. Test was conducted as follows.
10 μL of Alamar Blue aqueous solution was added to each well, and the resultant was further cultured for 2 hours. Next, the culture plate was placed on a fluorescent micro-plate reader (Spectramax Gemeni XS; US Molecular Device), radiated at an excited wavelength of 536 nm. Fluorescent intensity was measured at 588 nm, and infection rate of leishmania protozoa of the test solution added-group and control was calculated, to obtain a 50% growth inhibition concentration (EC50). Growth inhibition rate (%)={1−(b−a)/(c−a)}×100 a: early infection rate b: infection rate when test solution was added c: infection rate of the control

[2] = tested on: Trypanosoma cruzi (Tulahuen C2C4 strain); assay: American trypanosome protozoa growth inhibition screening test; settings: Tulahuen C2C4 strain in rat L6 cells, 96 hours, CPRG/Nonidet, read-out: 50% growth inhibition concentration Trypanosoma cruzi
Method: In the present example, amastigote and trypomastigote infected with rat L6 cells of protozoa of Trypanosoma cruzi (Tulahuen C2C4 strain) were used. As medium used in the test, RPMI 1640 medium containing L6 cells was supplemented so that L-glutamine (200 mM) becomes 1%, fetal bovine serum becomes 10%, which was cultured under CO2 concentration 5%, at 37° C.
The compounds of the present invention to be used in the test and the positive target agent (benznidazole) were dissolved in DMSO to make a test solution of a predetermined concentration. A medium containing 5×10^3 protozoa was added to wells of a 96-well culture plate, and pre-cultured for 48 hours. After replacing the medium, test solution containing drug of a predetermined concentration or a drug-free DMSO was added. Test solutions were taken by duplicates. After culturing the culture plate in an incubator for 96 hours, growth inhibition activity was tested. Test was conducted as follows.
50 μL of CPRG/Nonidet was added to each well, and allowed to rest for 2 to 6 hours. Next, the culture plate was placed on a fluorescent micro-plate reader, and the absorbance was measured at 540 nm. Growth inhibition rate was calculated with the following formula based on the protozoan infection rate which was obtained by calculating trypanosome infection rate of the test solution added group and control group, to obtain a 50% growth inhibition concentration (EC50). Growth inhibition rate (%)={1−(b−a)/(c−a)}×100 a: early infection rate b: infection rate when test solution was added c: infection rate of the control

[3] = tested on: Trypanosoma brucei rhodensiense (STIB 900 strain); assay: African trypanosome protozoa growth inhibition screening test; settings: read-out: 50% growth inhibiting concentration Trypanosoma brucei rhod.
Method: In the present example, protozoa of Trypanosoma brucei rhodensiense (STIB 900 strain), a trypamastigote living in blood stream, was used. The medium used in the experiment was a MEM medium which was sterilized with a filter and supplemented with 25 mM N-2-hydroxyethylpiperazine-2-ethansulfonic acid […]), 1 g/L glucose, 1% MEM non-essential amino acid, 0.2 mM 2-mercaptoethanol, 2 mM sodium pyruvate, 0.1 mM hypoxanthine, and 15% heat-treated horse serum. The protozoa was cultured in an atmosphere of CO2 concentration 5%, at a temperature of 37° C.
The compounds of the present invention to be used in the present test and the positive target drug (melarsoprol) were dissolved in DMSO to make a test solution of a predetermined concentration. A medium containing 8×10^3 protozoa, and a test solution containing a drug of a predetermined concentration or a drug-free DMSO were added to wells of a 96-well culture plate, and subsequently, medium was added so that the amount in each well becomes 100 μL. Test solutions were taken by duplicates. After culturing the culture plate for 72 hours in an incubator, growth inhibition activity was tested. Test was conducted as follows. 10 μL of Alamar Blue aqueous solution was added to each well, and the resultant was further cultured for 2 hours. Next, the culture plate was placed on a fluorescent micro-plate reader (Spectramax Gemeni XS; US Molecular Device), radiated at an excited wavelength of 536 nm. Fluorescent intensity was measured at 588 nm, to calculate the trypanosome protozoa infected rate of the test solution added-group, and of the control group. From the protozoan infection rate obtained in the above, growth inhibition rate was calculated with the following formula, to obtain a 50% growth inhibition concentration (EC50). Growth inhibition rate (%)={1−(b−a)/(c−a)}×100 a: early infection rate b: infection rate when test solution was added c: infection rate of the control

[4] = tested on: Plasmodium falciparum K1 strain; assay: Chloroquine resistant-Plasmodium falciparum growth inhibition screening test; settings: for EC50: chloroquine resistant K1 strain, 3H-hypoxanthine, 48 + 24 hours, read-out: 50% growth inhibition concentration P. falciparum K1; for Selective toxicity: chemotherapy index = EC50 rat L6 cells / EC50 chloroquine resistant P. falciparum
Method: In the present example, protozoa of Plasmodium falciparum K1 strain was used. RPMI-1640 medium sterilized with a filter to which human serum was added to be 5%, was used in the experiment. Malarial parasites were cultured under 3% O2 concentration, 4% Co2 concentration, 93% N2 concentration, and at a temperature of 37° C.
The compounds of the present invention to be used in the present test and the positive target drug (chloroquine) were dissolved in DMSO to make a test solution of a predetermined concentration. Cultured malarial parasite infected-erythrocytes were collected by centrifugation, and diluted with non-infected erythrocyte so that the early infection rate is 0.15%. Hematocrit level at that time was 2.5%. 200 μL of malaria infected solution was added to wells of a 96-well culture plate, and adjusted by adding a test solution containing drug of a predetermined concentration or a drug-free DMSO. Test solutions were taken by duplicates. After culturing for 48 hours at 37° C., 0.5 μCi radioactive tritium (3H)-labeled hypoxanthine was added to each well. After further culturing for 24 hours under the same conditions, it was collected on a glass fiber filter and washed with distilled water. Radiation intensity was measured with a beta plate liquid scintillation counter (Wallac), and malarial parasite infection rates of the test solution added group and of the control group were calculated. Growth inhibition rate was calculated with the following formula based on the malarial parasite infection rate obtained in the above, to obtain a 50% growth inhibition concentration (EC50). Growth inhibition rate (%)={1−(b−a)/(c−a)}×100 a: early infection rate b: infection rate when test solution was added c: infection rate of the control

[5] = tested on: Rat derived-L6 cells (rat skeletal myoblast cell); assay: Growth inhibition test of rat L6 cells; settings: 72 hours
Method: (§1) Rat derived-L6 cells (rat skeletal myoblast cell) were used. As medium, RPMI1640 medium was supplemented so that L-glutamin (200 mM) is 1%, and fetal bovine serum 10%, and the medium was cultured under CO2 concentration 5%, at 37° C. The compounds of the present invention and the target drugs to be used in the test were dissolved in DMSO, to make a test solution of a predetermined concentration. Pre-culture was conducted and medium containing cells which have entered the logarithmic growth phase was taken to wells of a 96-well culture plate. Then, a test solution containing drug of a predetermined concentration or a drug-free DMSO was added. Test solutions were taken by duplicates. Culture plate was cultured for 72 hours in an incubator, to test the growth inhibition activity. Test was conducted as follows.
(§2) 10 μl of Alamar Blue aqueous solution was added to each well, and the resultant was further cultured for 2 hours. Next, the culture plate was placed on a fluorescent micro-plate reader (Spectramax Gemeni XS; US Molecular Device), radiated at an excited wavelength of 536 nm. Fluorescent intensity was measured at 588 nm, and residual rate of L6 cells of the test solution added group, and that of the control was calculated. Based on the cell residual rate obtained in the above, growth inhibition rate to L6 cells was calculated, to obtain a 50% growth inhibition concentration (EC50). Growth inhibition rate (%)={(C−A)/(B−A)}×100 A: primary cell count B: cell count of control, 3 days after C: cell count of wells added with a sample, 3 days after […]

[6] = Growth inhibition test of rat L6 cells
Method: as §1, §2

[7] = tested on: Trypanosoma brucei rhodensiense (STIB 900 strain); assay: African trypanosome protozoa growth inhibition screening test; settings: chemotherapy index = EC50 rat L6 cells / EC50 African trypanosome protozoa
[8] = STIB 900 strain, blood stream form, 72 hours, Alamar Blue
[9] = Alamar Blue (Table 2), read-out: 50% growth inhibition concentration Cytotoxicity L6
[10] = Alamar Blue (Table 3), read-out: 50% growth inhibiting concentration Cytotoxicity L6
[11] = L6 cells (rat skeletal myoblast), Alamar Blue (Table 2), read-out: 50% growth inhibition concentration Cytotoxicity L6
[12] = Trypanosoma brucei, STIB900, STIB 900 strain, blood stream form, 72 hours, Alamar Blue

SMILES	EC50 [1]	EC50 [3, 8]	EC50 [4]	EC50 [5, 9]	EC50 [5, 10]	other results
CCn1c(=Cc2sc3c4ccccc4ccc3[n+]2CC)sc(=CC=C2SCCN2C)c1=O [A-9]	0.023 µM	0.14 µM	0.074 µM	8.1 µM	8.1 µM	EC50 [2]: 4.1 µM
CCn1c(=O)/c(=C/C=C2\Sc3ccccc3N2C)s/c1=C\c1cccc[n+]1CCO [A-5]						EC50 ([4]; Plasmodium falciparum, 72 h): 0.27 µM; Selective toxicity [4]: 150; EC50 at 72 h [6, 11]: 42 µM
O=C(Cn1ccnc1[N+](=O)[O-])NCc1ccccc1 [benznidazol, benznidazole, reference compound]						EC50 ([2]; Trypanosoma cruzi): 0.87 µM
CCn1c(=Cc2cccc[n+]2C)sc(=CC=C2Sc3ccccc3N2C)c1=O [A-4]		0.41 µM	0.12 µM	76 µM	76 µM	
CCn1c(=Cc2cc[n+](CC)c3ccccc23)sc(=CC=C2C=Cc3ccccc3N2C)c1=O [A-14]	0.2 µM	0.041 µM	0.14 µM	9.1 µM	9.1 µM	EC50 [2]: 1.2 µM
CCn1c(=Cc2oc3ccccc3[n+]2CC)sc(=CC=C2N(C)c3ccccc3C2(C)C)c1=O [A-8]	0.056 µM	0.3 µM	0.014 µM	1.8 µM	1.8 µM	EC50 [2]: 0.99 µM
C=CCn1c(=Cc2oc3ccccc3[n+]2C)sc(=CC=C2Sc3ccccc3N2C)c1=O [A-13]	0.047 µM	0.11 µM			13 µM	EC50 ([5]; Alamar Blue (Table 5), read-out: 50% growth inhibition concentration Cytotoxicity L6): 13 µM
CCn1c(=O)/c(=C/C=C2\Sc3ccccc3N2C)s/c1=C\c1cccc[n+]1CCCCC(=O)O [A-12]						Selective toxicity [7]: 19; EC50 [3, 12]: 0.9 µM; EC50 ([4]; Plasmodium falciparum, 72 h): 0.21 µM; Selective toxicity [4]: 84; EC50 at 72 h [6, 11]: 17 µM
CCCCCCCCCCCCCCCCOP(=O)([O-])OCC[N+](C)(C)C [miltefosine, reference compound]						EC50 ([1]; Leishmania donovani): 0.28 µM
Nc1nc(N)nc(Nc2ccc([As]3SCC(CO)S3)cc2)n1 (centres unmarked) [melarsoprol, reference compound]						Selective toxicity [7]: 1300; EC50 ([3]; Trypanosoma brucei, STIB900, 72 h): 0.006 µM; EC50 at 72 h [6, 10]: 7.8 µM
CCn1c(=O)/c(=C/C=C2\Sc3ccccc3N2C)s/c1=C\c1cccc[n+]1CCOCCOCCOC [A-6]						Selective toxicity [7]: 340; EC50 [3, 12]: 0.13 µM; EC50 ([4]; Plasmodium falciparum, 72 h): 0.19 µM; Selective toxicity [4]: 236; EC50 at 72 h [6, 11]: 44 µM
